# Counter-ions that a name gives are not always drawn. Like-named read-outs stand apart in the source and are kept apart here.
# Experiments:
# [1] = Pharmacokinetic evaluation of oral administration in mice (tizoxanide in blood by LC/MS/MS); format: in vivo, ICR mice; settings: in words; for conversion to the active form tizoxanide in vivo: after oral administration in mice; for Area Under concentration-time Curve (AUC) compared to nitazoxanide: oral administration in mice
# Protocol: Sample preparation: 32.57 μmol of a test compound was dissolved in 100 μL dimethyl sulfoxide (DMSO), with the addition of 10 mL 0.5% Carboxyl Methyl Cellulose Sodium (CMC-Na) solution, to prepare a sample at 3.257 μmol/mL.
# The test compounds refer to the compounds prepared in Examples of the invention and the positive control compound nitazoxanide. The experiment was carried out in two batches, wherein the first hatch of test compounds were Compound 1, 2, 6, 7, 8, 9 and the positive control compound nitazoxanide; and the second batch of test compounds were Compound 3, 4, 5, 12, 14, 17, 18 and positive control compound nitazoxanide.
# Experimental method: ICR mice (SPS grade, male, […]), purchased from Beijing Vital River Laboratory Animal Technology Co., Ltd., were grouped randomly depending on body weight, 3 mice for each group. Nitazoxanide and a test compound were intragastrically administered separately to each mouse at a dose of 10 mL/kg (i.e., 32.57 μmol/kg of corresponding drug to each mouse), wherein nitazoxanide was used as positive control, and 0.1 ml blood was taken from veins of Fundus Oculi at 0.08, 0.25, 0.5, 1, 2, 4, 6, 8 and 12 h after administration, placed in a Heparin Sodium-containing centrifuge tube, and centrifuged for 20 min (at a relative centrifugal force (RCF) of 3000 g). The plasma was taken and stored in a −20° C. refrigerator for further detection.
# During the detection, 50 μL plasma was taken, with the addition of an internal standard solution (5000 ng/mL glipizide aqueous solution, 10 μL), and the addition of acetonitrile (200 μL), and then mixed well. The mixture was vortexed for 3 min, and centrifuged for 10 min (at a relative centrifugal force (RCF) of 8500 g). The supernatant (50 μL) was well mixed with water (50 μL), and 10 μL was drawn for LC/MS/MS analysis, so as to detect the blood concentration of tizoxanide. The results are shown in Table 1, Table 2, Table 3, Table 4, FIG. 1, and FIG. 2.
# [2] = Pharmacokinetic evaluation of oral administration and intravenous injection in rats; format: in vivo, SD rats; settings: for MRT last: read-out: MRT(0-t)
# Protocol: 9 SD rats (SPF grade, male, 200±10 g), provided by Laboratory Animal Center of the Academy of Military Medical Sciences, were grouped randomly, 3 […] for each group.
# […]; The plasma was separated and stored in a −20° C. refrigerator for further detection.
# (2) Oral administration group of Compound 3, a dose of 15 mg/kg (equivalent to a dose of 41 μmol/kg tizoxanide); […]; The plasma was separated and stored in a −20° C. refrigerator for further detection.
# (3) Oral administration group of nitazoxanide: a dose of 12.5 mg/kg (equivalent to a dose of 41 μmol/kg tizoxanide); administration volume: 2 mL/200 g rat (preparation of a test solution: 10.96 mg nitazoxanide was weighed accurately and dissolved by adding 600 μL DMSO, and […] sterile water was added to prepare a clear solution at 1.25 mg/mL); after oral administration of nitazoxanide at 12.5 mg/kg in rats, blood was taken before administration and at 0.08, 0.25, 0.5, 1, 2, 4, 6, 8, 12 and 24 h after administration. The plasma was separated and stored in a −20° C. refrigerator for further detection.
# Treatment of plasma sample: 100 μL plasma was taken, 300 μL acetonitrile solution containing internal standard (500 nmol/L a solution of tolbutamide in acetonitrile) was added, and then mixed well. The mixture was vortexed for 1 min, and centrifuged at 4° C. for 10 min (at a relative centrifugal force (RCF) of 14000 g). The supernatant was taken, and 20 μL was drawn for LC/MS/MS analysis, so as to detect the blood concentration of tizoxanide and the prototype drug.
# Helicobacter pylori = settings: 103 strains of Helicobacter pylori; cited from earlier work
# [3] = in words
# [4] = test system: Mycobacterium tuberculosis; settings: cited from earlier work
# [5] = in vivo, cited from earlier work
# PR8 influenza virus = PR8 influenza virus in MDCK cells; cited from earlier work
# [6] = Compound 3 in plasma, rats, intravenous injection of Compound 3 (5 mg/kg)
# [7] = Compound 3 in plasma, rats, oral administration of Compound 3 (15 mg/kg)
# [8] = male, SD, rat, in vivo, Compound 3 in plasma, rats, intravenous injection of Compound 3 (5 mg/kg)
# [9] = male, SD, rat, in vivo, Compound 3 in plasma, rats, oral administration of Compound 3 (15 mg/kg)
# [10] = male, SD, rat, in vivo, rats, intravenous injection of Compound 3 (5 mg/kg), read-out: plasma concentration of Compound 3
# [11] = male, SD, rat, in vivo, rats, oral administration of Compound 3 (15 mg/kg), read-out: plasma concentration of Compound 3
smiles,measurement,setting,value
"O=C(Nc1ncc([N+](=O)[O-])s1)c1ccccc1OP(=O)(OCc1ccccc1)OCc1ccccc1 [Compound 1, dibenzyl 2-(5-nitrothiazol-2-yl-carbamoyl)phenyl phosphate]",conversion to the active form tizoxanide in vivo,[1],relatively complete
same,Area Under concentration-time Curve (AUC) compared to nitazoxanide,[1],slightly higher
same,melting point,,122 to 123 °C
"O=C(Nc1ncc([N+](=O)[O-])s1)c1ccccc1OP(=O)(O)O [Compound 2, 2-(5-nitrothiazol-2-yl-carbamoyl)phenyl dihydrogen phosphate]",conversion to the active form tizoxanide in vivo,[1],relatively complete
same,melting point,,224 to 226 °C
"O=C(Nc1ncc([N+](=O)[O-])s1)c1ccccc1OP(=O)(O)O [Compound 3, 2-(5-nitrothiazol-2-yl-carbamoyl)phenyl hydrogen phosphate monosodium salt]",CLz/F,[2]; [6],17.2 ± 2.83 mL/min/kg
same,t1/2z,[2]; [6],28.8 ± 16.8 min
same,CLz/F,[2]; [7],1879.8 ± 783.8 mL/min/kg
same,F,[2]; [7],2.4%
same,t1/2z,[2]; [7],100 ± 100 min
same,AUC(0-inf),[2]; [8],4920 ± 786 ng·h/mL
same,AUC(0-t),[2]; [8],4920 ± 786 ng·h/mL
same,Cmax,[2]; [8],26700 ± 6590 ng/mL
same,MRT last,[2]; [8],15.6 ± 9 min
same,AUC(0-inf),[2]; [9],154 ± 76.3 ng·h/mL
same,AUC(0-t),[2]; [9],119 ± 50 ng·h/mL
same,Cmax,[2]; [9],100 ± 20 ng/mL
same,Tmax,[2]; [9],15 min
same,MRT last,[2]; [9],73.2 ± 49.8 min
same,Vd/F,"[2]; male, SD, rat, in vivo, Compound 3 in plasma, rats, oral administration of Compound 3 (15 mg/kg), read-out: Vz/F",198 ± 118 L/kg
same,concentration at 0.03 h,[2]; [10],26700 ± 6590 ng/mL
same,concentration at 0.08 h,[2]; [10],13300 ± 1390 ng/mL
same,concentration at 0.25 h,[2]; [10],3970 ± 1880 ng/mL
same,concentration at 0.5 h,[2]; [10],1730 ± 1250 ng/mL
same,concentration at 1 h,[2]; [10],345 ± 316 ng/mL
same,concentration at 2 h,"[2]; male, SD, rat, in vivo, rats, intravenous injection of Compound 3 (5 mg/kg), 2 h, read-out: plasma concentration of Compound 3",113 ± 83.4 ng/mL
same,concentration at 4 h,"[2]; male, SD, rat, in vivo, rats, intravenous injection of Compound 3 (5 mg/kg), 4 h, read-out: plasma concentration of Compound 3",13.9 ± 1.9 ng/mL
same,concentration at 0.03 h,[2]; [11],55.3 ± 2.1 ng/mL
same,concentration at 0.08 h,[2]; [11],99.1 ± 22.1 ng/mL
same,concentration at 0.25 h,[2]; [11],71.1 ± 7.3 ng/mL
same,concentration at 0.5 h,[2]; [11],33 ± 3.2 ng/mL
same,concentration at 1 h,[2]; [11],24.4 ± 1.6 ng/mL
same,conversion to active form tizoxanide,"[2]; rats, oral administration or intravenous injection, in words",quickly converted
O=C(Nc1ncc([N+](=O)[O-])s1)c1ccccc1O [tizoxanide],50% minimal inhibitory concentration (MIC50),Helicobacter pylori,1 µg/mL
same,90% minimal inhibitory concentration (MIC90),Helicobacter pylori,4 µg/mL
CC(C)(C)OC(=O)NCCS(=O)(=O)Oc1ccccc1C(=O)Nc1ncc([N+](=O)[O-])s1,melting point,,164 to 166 °C
"CCCS(=O)(=O)Oc1ccccc1C(=O)Nc1ncc([N+](=O)[O-])s1 [Compound 8, 2-(5-nitrothiazol-2-yl-carbamoyl)phenyl 1-propanesulfonate]",conversion to the active form tizoxanide in vivo,[1],relatively complete
same,Area Under concentration-time Curve (AUC) compared to nitazoxanide,[1],much higher
same,melting point,,144 to 146 °C
"O=C(Nc1ncc([N+](=O)[O-])s1)c1ccccc1OP(=O)(O)O [Compound 5, 2-(5-nitrothiazol-2-yl-carbamoyl)phenyl phosphate calcium salt]",solubility compared to nitazoxanide,[3],much better
"CCOP(=O)(OCC)Oc1ccccc1C(=O)Nc1ncc([N+](=O)[O-])s1 [Compound 18, diethyl 2-(5-nitrothiazol-2-yl-carbamoyl)phenyl phosphate]",conversion to the active form tizoxanide in vivo,[1],relatively complete
same,Area Under concentration-time Curve (AUC) compared to nitazoxanide,[1],obviously higher
"CC(=O)Oc1ccccc1C(=O)Nc1ncc([N+](=O)[O-])s1 [nitazoxanide, 2-acetoxy-N-(5-nitro-2-thiazolyl)benzamide]",50% minimal inhibitory concentration (MIC50),Helicobacter pylori,1 µg/mL
same,90% minimal inhibitory concentration (MIC90),Helicobacter pylori,4 µg/mL
same,"minimal inhibitory concentration (MIC), median value",[4],16 µg/mL
same,Vz/F,"[2]; male, SD, rat, in vivo, po, 12.5 mg/kg",32.67 ± 16.81 L/kg
same,"detection of nitazoxanide in plasma, urine, bile and feces",[5]; po,not detectable
same,fraction of the oral dose excreted by feces,[5],about ⅔
same,fraction of the oral dose excreted by urine,[5],about ⅓
same,EC50,PR8 influenza virus,1 µg/mL
same,EC90,PR8 influenza virus,7 µg/mL
"CCS(=O)(=O)Oc1ccccc1C(=O)Nc1ncc([N+](=O)[O-])s1 [Compound 7, 2-(5-nitrothiazol-2-yl-carbamoyl)phenyl ethanesulfonate]",conversion to the active form tizoxanide in vivo,[1],relatively complete
same,Area Under concentration-time Curve (AUC) compared to nitazoxanide,[1],much higher
same,melting point,,178 to 180 °C
"CCCCS(=O)(=O)Oc1ccccc1C(=O)Nc1ncc([N+](=O)[O-])s1 [Compound 9, 2-(5-nitrothiazol-2-yl-carbamoyl)phenyl 1-butanesulfonate]",conversion to the active form tizoxanide in vivo,[1],relatively complete
same,Area Under concentration-time Curve (AUC) compared to nitazoxanide,[1],much higher
same,melting point,,142 to 144 °C
"COP(=O)(OC)Oc1ccccc1C(=O)Nc1ncc([N+](=O)[O-])s1 [Compound 17, dimethyl 2-(5-nitrothiazol-2-yl-carbamoyl)phenyl phosphate]",conversion to the active form tizoxanide in vivo,[1],relatively complete
same,Area Under concentration-time Curve (AUC) compared to nitazoxanide,[1],obviously higher
"NCCS(=O)(=O)Oc1ccccc1C(=O)Nc1ncc([N+](=O)[O-])s1 [Compound 12, 2-(5-nitrothiazol-2-yl-carbamoyl)phenyl taurate hydrochloride]",conversion to the active form tizoxanide in vivo,[1],relatively complete
same,Area Under concentration-time Curve (AUC) compared to nitazoxanide,[1],much higher
"CS(=O)(=O)Oc1ccccc1C(=O)Nc1ncc([N+](=O)[O-])s1 [Compound 6, 2-(5-nitrothiazol-2-yl-carbamoyl)phenyl methanesulfonate]",conversion to the active form tizoxanide in vivo,[1],relatively complete
same,Area Under concentration-time Curve (AUC) compared to nitazoxanide,[1],much higher
same,melting point,,188 to 190 °C

# From US10196411B2, “Tizoxanide phosphate and alkane sulfonate and pharmaceutical applications thereof” (priority 2014, dated 2019)
